# Results taken from US20200149049A1, “METHODS AND COMPOSITIONS RELATING TO ANTI-CALCIFICATION” (THE BRIGHAM AND WOMEN'S HOSPITAL, INC., priority 2017, published 2020).
# Entries after “also recorded” stand apart in the source; their conditions may differ.
# Assays:
# Assay type in all cases: cell-based, human
# hCASMCs [1] = test: Gene expression assay (TaqMan real-time PCR) in hCASMCs
# Protocol: FIG. 32 depicts graphs of the effects of PPAR agonists on gene expressions in hCASMCs. HCASMCs were maintained under the same condition with FIG. 23A-23C. Next day after cell seeding, medium was changed to 1% FCS DMEM. After 24 hours, hCASMCs were stimulated by 100 nM K-877 (K877), 100 nM GW-501516 (GW) and 100 nM rosiglitazone (Rosi). After 18 hours, the mRNA samples were isolated by TRIzol Reagent.
# FIGS. 33A-33D depict the effects of CROT silencing on CDNK1A (FIG. 33A), DUSP1 (FIG. 33B), HMOX1 (FIG. 33C) and SAT1 (FIG. 33D) gene expression in hCASMCs. HCASMCs were maintained under the same condition with FIGS. 23A-23C. The mRNA samples from hCASMCs were isolated using TRIzol Reagent on Day 7. *: P<0.05, **: P<0.01 (vs. NM-siCont or OM-siCont, Student's t-test, N=3).
# HCASMCs were maintained under the same condition with FIGS. 23A-23C. BMP7 was not detected. The mRNA samples from hCASMCs were isolated using TRIzol Reagent on Day 7. *: P<0.05 (vs. OM-siCont, Student's t-test, N=3).
# FIG. 35 depicts the effects of PPAR agonists GW-501516 on SLC20A1 gene expression in hCASMCs. HCASMCs were maintained under the same condition with FIGS. 23A-23C. HCASMCs were stimulated by 100 nM GW-501516 (GW). After 18 hours, the mRNA samples were isolated by TRIzol Reagent. **: P<0.01, (vs. Control, Student's t-test, N=3).
# RNA preparation and real-time PCR. Total RNA from the cell culture was isolated using TRIZol (Life Technologies). Reverse transcription was performed using the QuantiTect Reverse Transcription Kit (Qiagen). The mRNA expression was determined by TaqMan-based real-time PCR reactions (Life Technologies). The following TaqMan probes were used: 4326315E (human β-actin), (human SLC20A1), (human BMP2), (human BMP4), (human BMP7). The expression levels were normalized to β-actin. Results were calculated using the […] method, and presented as fold increase relative to control.
# TNAP activity in hCASMCs = test: Tissue non-specific alkaline phosphatase (TNAP) activity in cell cultures; conditions: hCASMCs in osteogenic medium with siRNA; Day 14
# Protocol: (§1) FIGS. 22A-22C depict the effects of the SORT1, AASS, CROT, IL1R1, ITGBL1, METTL7A and NNMT silencing on calcium deposition and TNAP activity in hCASMCs. HCASMCs were treated with siRNAs in NM. After 3 days, the medium was changed to OM with the siRNA. On Day 21, cells were fixed in 4% formalin for 10 min and washed twice with PBS for Alizarin Red staining. The cells were stained with 2% Alizarin Red solution for 20 min at RT and rinsed twice with water (FIG. 22A). Then, the Alizarin Red was extracted by 10 mM cetylpyridinium chloride and the extracts were measured on the absorbance (540 nm) (FIG. 22B). On Day 14, TNAP activity was determined using Alkaline Phosphatase Activity Colorimetric Assay Kit (FIG. 22C).
# (§2) FIGS. 23A-23C depict teffects of the CROT silencing on calcium deposition and TNAP activity in hCASMCs. HCASMCs were treated with siRNAs in NM. After 3 days, the medium was changed to OM with the siRNA. […] Then, the Alizarin Red was extracted by 10 mM cetylpyridinium chloride and the extracts were measured on the absorbance (540 nm) (FIG. 23B). On Day 14, TNAP activity was determined using Alkaline Phosphatase Activity Colorimetric Assay Kit (FIG. 23C). **: P<0.01, ***: P <0.001 (vs. OM-siControl, Student's t-test, N=3-4). […]
# Tissue non-specific alkaline phosphatase (TNAP) activity was measured in cell cultures using the Alkaline Phosphatase Activity Colorimetric Assay Kit (BioVision). […]
# hCASMCs [2] = test: Mineralization assay (Alizarin Red staining, calcium deposition); conditions: hCASMCs in osteogenic medium with siRNA, Day 21
# Protocol: as §1
# as §2, with “NM.” for “NM. After 3 days, the medium was changed to OM with the siRNA.”
# Mineralization assay and activity of tissue non-specific alkaline phosphatase. Mineralized matrix formation was assessed by Alizarin Red staining. […] Aliquots were taken and measured with a spectrophotometer at 540 nm.
compound,measurement,setting,value
"Cc1cc(SCc2sc(-c3ccc(C(F)(F)F)cc3)nc2C)ccc1OCC(=O)O [PPARδ agonist, GW-501516]",SLC20A1 gene expression,"hCASMCs [1]; PPARδ agonist, after 24 h",suppressed; also recorded: reduced
same,CDKN1A gene expression,hCASMCs [1]; response to PPARδ agonist,affected
same,DUSP1 gene expression,hCASMCs [1]; response to PPARδ agonist,affected
same,HMOX1 gene expression,hCASMCs [1]; response to PPARδ agonist,affected
same,SAT1 gene expression,hCASMCs [1]; response to PPARδ agonist,affected
"siCROT: siRNA silencing CROT; patent names inhibitory nucleic acid CACUUCAGCUGGCCUAUUA (SEQ ID NO: 1) as CROT inhibitor (listed as RNA, chemistry not given here)",TNAP activity,TNAP activity in hCASMCs,decreased
same,Ca deposition,hCASMCs [2],decreased
same,HMOX1 expression,"hCASMCs [1]; CROT siRNA, Day 7",induced
